The supplement of paper PMC10307832

Columns and labels:
Assay in all cases: relative viability (nuclei count vs DMSO), 5 days (fraction); higher = more cells survive
[1] = tested on: NCI-H2405
Method in brief: (§1)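 Relative viability is defined as nuclei in treated wells over nuclei in vehicle wells. Duplicate plates were run and medians reported. Lung cancer cell lines in 1536-well plates were dosed by pin tool one day after seeding, with one drug or with a fixed anchor-drug dose plus five library-drug doses (not always all listed) in √10 steps, and nuclei were counted after 5 days.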

[2] = tested on: NCI-H1734
Method in brief: as §1

[3] = tested on: NCI-H2009
Method in brief: as §1

[4] = tested on: HCC-366
Method in brief: as §1

[5] = tested on: PC-14
Method in brief: as §1

[6] = tested on: ChaGo-K-1
Method in brief: as §1

[7] = tested on: EPLC-272H
Method in brief: as §1

[8] = tested on: NCI-H1944
Method in brief: as §1

[9] = tested on: HCC-15
Method in brief: as §1

[10] = tested on: LCLC-103H
Method in brief: as §1

[11] = tested on: NCI-H2347
Method in brief: as §1

`CCNC(=O)c1noc(-c2cc(C(C)C)c(O)cc2O)c1-c1ccc(CN2CCOCC2)cc1` [Luminespib] + O=C(c1cc(Cc2n[nH]c(=O)c3ccccc23)ccc1F)N1CCN(C(=O)C2CC2)CC1 [Olaparib] (partner 8 µM) was tested, and the relative viability ([1]; first compound 0.002 µM) was 0.948, the relative viability ([1]; first compound 0.02 µM) was 0.813 and the relative viability ([1]; first compound 0.06325 µM) was 0.181. It also gave a relative viability ([1]; first compound 0.2 µM) of 0.182, a relative viability ([2]; first compound 0.002 µM) of 0.646 and a relative viability ([2]; first compound 0.006325 µM) of 0.595. The relative viability ([2]; first compound 0.02 µM) was 0.476, the relative viability ([2]; first compound 0.06325 µM) was 0.152 and the relative viability ([2]; first compound 0.2 µM) was 0.13. For the same compound, the relative viability ([3]; first compound 0.002 µM) was 0.763, the relative viability ([3]; first compound 0.006325 µM) was 0.67 and the relative viability ([3]; first compound 0.02 µM) was 0.701. The relative viability ([3]; first compound 0.06325 µM) was 0.409, the relative viability ([3]; first compound 0.2 µM) was 0.0486 and the relative viability ([4]; first compound 0.002 µM) was 0.401. The relative viability ([4]; first compound 0.006325 µM) was 0.345, the relative viability ([4]; first compound 0.02 µM) was 0.424 and the relative viability ([4]; first compound 0.06325 µM) was 0.0205. For the same compound, the relative viability ([4]; first compound 0.2 µM) was 0.0254, the relative viability ([5]; first compound 0.002 µM) was 0.288 and the relative viability ([5]; first compound 0.006325 µM) was 0.261. For the same compound, the relative viability ([5]; first compound 0.02 µM) was 0.101, the relative viability ([5]; first compound 0.06325 µM) was 0.0578 and the relative viability ([5]; first compound 0.2 µM) was 0.0514. For the same compound, the relative viability ([6]; first compound 0.002 µM) was 0.42, the relative viability ([6]; first compound 0.006325 µM) was 0.407 and the relative viability ([6]; first compound 0.02 µM) was 0.439. It also gave a relative viability ([6]; first compound 0.06325 µM) of 0.452, a relative viability ([6]; first compound 0.2 µM) of 0.36 and a relative viability ([7]; first compound 0.002 µM) of 0.812. For the same compound, the relative viability ([7]; first compound 0.006325 µM) was 0.702, the relative viability ([7]; first compound 0.02 µM) was 0.709 and the relative viability ([7]; first compound 0.06325 µM) was 0.0637. It also gave a relative viability ([7]; first compound 0.2 µM) of 0.082, a relative viability ([8]; first compound 0.002 µM) of 0.445 and a relative viability ([8]; first compound 0.006325 µM) of 0.394. The relative viability ([8]; first compound 0.02 µM) was 0.364, the relative viability ([8]; first compound 0.06325 µM) was 0.418 and the relative viability ([8]; first compound 0.2 µM) was 0.33. For the same compound, the relative viability ([9]; first compound 0.002 µM) was 0.778, the relative viability ([9]; first compound 0.006325 µM) was 0.682 and the relative viability ([9]; first compound 0.02 µM) was 0.734. It also gave a relative viability ([9]; first compound 0.06325 µM) of 0.345, a relative viability ([9]; first compound 0.2 µM) of 0.154 and a relative viability ([10]; first compound 0.002 µM) of 0.76. It also gave a relative viability ([10]; first compound 0.006325 µM) of 0.73, a relative viability ([10]; first compound 0.02 µM) of 0.78 and a relative viability ([10]; first compound 0.06325 µM) of 0.681. For the same compound, the relative viability ([10]; first compound 0.2 µM) was 0.809, the relative viability ([11]; first compound 0.002 µM) was 0.631 and the relative viability ([11]; first compound 0.006325 µM) was 0.617. The relative viability ([11]; first compound 0.02 µM) was 0.7, the relative viability ([11]; first compound 0.06325 µM) was 0.408 and the relative viability ([11]; first compound 0.2 µM) was 0.296.
